ChEMBL document CHEMBL4507257, “Data for DCP probe ABT-100” (2021)

How the values were obtained:
[1] = test system: Receptor-type tyrosine-protein kinase FLT3 (Homo sapiens), P36888 [D835V]; conditions: Compound concentration 1000.0 nM
[2] = molecular target: Mitogen-activated protein kinase kinase kinase 20 (Homo sapiens) (UniProt Q9NYL2); conditions: Compound concentration 1000.0 nM
[3] = molecular target: Cyclin-dependent kinase 2 homolog (Plasmodium falciparum (isolate 3D7)) (UniProt P61075); conditions: Compound concentration 1000.0 nM
Sequence of Cyclin-dependent kinase 2 homolog (Plasmodium falciparum (isolate 3D7)) (P61075 whole entry): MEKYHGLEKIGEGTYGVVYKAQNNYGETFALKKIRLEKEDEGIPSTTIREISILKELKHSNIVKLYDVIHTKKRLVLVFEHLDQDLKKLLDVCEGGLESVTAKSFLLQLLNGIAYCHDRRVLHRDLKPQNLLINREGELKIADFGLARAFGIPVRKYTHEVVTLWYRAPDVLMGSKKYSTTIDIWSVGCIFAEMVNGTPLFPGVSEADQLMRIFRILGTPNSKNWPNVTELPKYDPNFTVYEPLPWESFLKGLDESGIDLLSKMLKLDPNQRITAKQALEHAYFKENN

[4] = molecular target: Beta-2 adrenergic receptor (Homo sapiens) (UniProt P07550); conditions: Compound concentration 10.0 uM
Sequence of Beta-2 adrenergic receptor (Homo sapiens) (P07550 whole entry, looked up): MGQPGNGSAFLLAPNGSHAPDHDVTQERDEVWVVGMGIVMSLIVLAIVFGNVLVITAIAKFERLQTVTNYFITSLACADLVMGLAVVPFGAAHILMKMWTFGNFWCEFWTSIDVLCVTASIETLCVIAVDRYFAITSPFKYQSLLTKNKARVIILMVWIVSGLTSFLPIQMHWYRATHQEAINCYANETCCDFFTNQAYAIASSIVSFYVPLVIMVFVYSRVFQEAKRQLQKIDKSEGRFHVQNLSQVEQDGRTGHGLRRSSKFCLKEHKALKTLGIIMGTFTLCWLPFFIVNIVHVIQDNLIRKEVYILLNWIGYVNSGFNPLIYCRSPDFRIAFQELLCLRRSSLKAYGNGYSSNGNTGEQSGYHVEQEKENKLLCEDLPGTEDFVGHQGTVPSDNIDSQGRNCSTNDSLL

[5] = molecular target: Serine/threonine-protein kinase MARK1 (Homo sapiens) (UniProt Q9P0L2); conditions: Compound concentration 1000.0 nM
[6] = molecular target: Peripheral plasma membrane protein CASK (Homo sapiens) (UniProt O14936); conditions: Compound concentration 1000.0 nM
Histamine H1 receptor = Histamine H1 receptor (Homo sapiens, UniProt P35367); conditions: Compound concentration 10.0 uM
[7] = molecular target: Non-receptor tyrosine-protein kinase TNK1 (Homo sapiens) (UniProt Q13470); conditions: Compound concentration 1000.0 nM
[8] = molecular target: Mitogen-activated protein kinase kinase kinase kinase 4 (Homo sapiens) (UniProt O95819); conditions: Compound concentration 1000.0 nM
[9] = molecular target: Interleukin-1 receptor-associated kinase 3 (Homo sapiens) (UniProt Q9Y616); conditions: Compound concentration 1000.0 nM
[10] = molecular target: Cyclin-dependent kinase 14 (Homo sapiens) (UniProt O94921); conditions: Compound concentration 1000.0 nM
[11] = molecular target: Proto-oncogene tyrosine-protein kinase receptor Ret (Homo sapiens) (UniProt P07949); conditions: Compound concentration 1000.0 nM
[12] = molecular target: Leukocyte tyrosine kinase receptor (Homo sapiens) (UniProt P29376); conditions: Compound concentration 1000.0 nM
[13] = molecular target: Homeodomain-interacting protein kinase 2 (Homo sapiens, UniProt Q9H2X6); conditions: Compound concentration 1000.0 nM
[14] = molecular target: Serine/threonine-protein kinase SBK1 (Homo sapiens) (UniProt Q52WX2); conditions: Compound concentration 1000.0 nM
Sequence of Serine/threonine-protein kinase SBK1 (Homo sapiens) (Q52WX2 whole entry): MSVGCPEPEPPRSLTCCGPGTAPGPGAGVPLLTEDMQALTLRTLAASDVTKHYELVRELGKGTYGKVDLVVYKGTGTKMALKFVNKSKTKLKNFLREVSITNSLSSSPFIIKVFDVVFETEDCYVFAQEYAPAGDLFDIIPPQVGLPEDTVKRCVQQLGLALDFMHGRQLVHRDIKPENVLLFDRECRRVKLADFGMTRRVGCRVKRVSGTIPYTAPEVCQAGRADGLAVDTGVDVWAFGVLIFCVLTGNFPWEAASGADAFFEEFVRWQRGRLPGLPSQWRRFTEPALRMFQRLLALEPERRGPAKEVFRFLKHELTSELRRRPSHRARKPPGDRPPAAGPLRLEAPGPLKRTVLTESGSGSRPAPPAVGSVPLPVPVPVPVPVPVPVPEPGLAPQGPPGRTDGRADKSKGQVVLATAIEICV

[15] = molecular target: Serine/threonine-protein kinase N2 (Homo sapiens) (UniProt Q16513); conditions: Compound concentration 1000.0 nM
[16] = molecular target: Beta-3 adrenergic receptor (Homo sapiens) (UniProt P13945); conditions: Compound concentration 10.0 uM
Sequence of Beta-3 adrenergic receptor (Homo sapiens) (P13945 whole entry, looked up): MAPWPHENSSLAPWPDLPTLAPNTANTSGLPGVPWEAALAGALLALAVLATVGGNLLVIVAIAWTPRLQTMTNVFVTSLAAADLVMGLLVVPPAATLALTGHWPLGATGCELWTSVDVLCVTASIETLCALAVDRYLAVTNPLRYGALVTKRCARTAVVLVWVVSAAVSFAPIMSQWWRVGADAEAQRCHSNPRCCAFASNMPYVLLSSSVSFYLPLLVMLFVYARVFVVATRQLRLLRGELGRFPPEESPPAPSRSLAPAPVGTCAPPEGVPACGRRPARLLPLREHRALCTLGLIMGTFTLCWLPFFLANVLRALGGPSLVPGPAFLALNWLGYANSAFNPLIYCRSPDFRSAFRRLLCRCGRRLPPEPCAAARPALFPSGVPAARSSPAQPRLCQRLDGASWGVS

[17] = molecular target: Macrophage colony-stimulating factor 1 receptor (Homo sapiens) (UniProt P07333); conditions: Compound concentration 1000.0 nM
[18] = molecular target: Ribosomal protein S6 kinase alpha-1 (Homo sapiens) (UniProt Q15418); conditions: Compound concentration 1000.0 nM
[19] = molecular target: Ribosomal protein S6 kinase alpha-6 (Homo sapiens) (UniProt Q9UK32); conditions: Compound concentration 1000.0 nM
[20] = molecular target: Mitogen-activated protein kinase 4 (Homo sapiens) (UniProt P31152); conditions: Compound concentration 1000.0 nM
[21] = molecular target: Serine/threonine-protein kinase Nek7 (Homo sapiens, UniProt Q8TDX7); conditions: Compound concentration 1000.0 nM
[22] = molecular target: Serine/threonine-protein kinase 10 (Homo sapiens) (UniProt O94804); conditions: Compound concentration 1000.0 nM
[23] = molecular target: Glycogen synthase kinase-3 alpha (Homo sapiens) (UniProt P49840); conditions: Compound concentration 1000.0 nM
[24] = molecular target: MAP kinase-activated protein kinase 2 (Homo sapiens) (UniProt P49137); conditions: Compound concentration 1000.0 nM
[25] = molecular target: Serine/threonine-protein kinase Sgk2 (Homo sapiens) (UniProt Q9HBY8); conditions: Compound concentration 1000.0 nM
[26] = molecular target: Phosphatidylinositol 4,5-bisphosphate 3-kinase catalytic subunit delta isoform (Homo sapiens) (UniProt O00329); conditions: Compound concentration 1000.0 nM
[27] = molecular target: Serine/threonine-protein kinase ULK2 (Homo sapiens) (UniProt Q8IYT8); conditions: Compound concentration 1000.0 nM
Sequence of Serine/threonine-protein kinase ULK2 (Homo sapiens) (Q8IYT8 whole entry): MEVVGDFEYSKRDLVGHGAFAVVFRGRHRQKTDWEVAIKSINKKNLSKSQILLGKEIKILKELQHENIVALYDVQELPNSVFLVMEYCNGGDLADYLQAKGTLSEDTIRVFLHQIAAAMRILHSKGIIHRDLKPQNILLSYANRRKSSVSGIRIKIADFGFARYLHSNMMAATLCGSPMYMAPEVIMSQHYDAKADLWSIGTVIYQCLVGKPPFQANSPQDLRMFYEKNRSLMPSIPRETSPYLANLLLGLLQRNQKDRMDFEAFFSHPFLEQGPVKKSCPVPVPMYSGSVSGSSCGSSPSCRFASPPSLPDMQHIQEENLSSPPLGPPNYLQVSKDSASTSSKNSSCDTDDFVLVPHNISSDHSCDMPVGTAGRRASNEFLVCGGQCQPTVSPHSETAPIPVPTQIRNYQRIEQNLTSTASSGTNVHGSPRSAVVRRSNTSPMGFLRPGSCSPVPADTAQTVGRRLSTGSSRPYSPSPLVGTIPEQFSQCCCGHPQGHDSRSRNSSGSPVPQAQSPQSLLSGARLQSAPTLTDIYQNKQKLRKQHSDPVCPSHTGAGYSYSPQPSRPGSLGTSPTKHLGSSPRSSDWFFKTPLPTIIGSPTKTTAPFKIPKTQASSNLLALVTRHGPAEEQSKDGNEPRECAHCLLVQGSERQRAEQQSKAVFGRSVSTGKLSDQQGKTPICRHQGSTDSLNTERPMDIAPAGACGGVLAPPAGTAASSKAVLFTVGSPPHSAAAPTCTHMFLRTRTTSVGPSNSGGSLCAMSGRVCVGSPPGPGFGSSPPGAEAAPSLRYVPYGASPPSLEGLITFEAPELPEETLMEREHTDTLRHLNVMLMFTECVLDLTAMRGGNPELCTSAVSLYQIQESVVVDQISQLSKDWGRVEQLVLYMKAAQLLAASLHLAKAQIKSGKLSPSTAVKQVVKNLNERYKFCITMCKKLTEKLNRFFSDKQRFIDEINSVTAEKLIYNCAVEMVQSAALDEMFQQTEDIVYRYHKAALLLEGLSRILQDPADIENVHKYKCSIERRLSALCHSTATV

[28] = molecular target: Ephrin type-B receptor 4 (Homo sapiens) (UniProt P54760); conditions: Compound concentration 1000.0 nM
Sequence of Ephrin type-B receptor 4 (Homo sapiens) (P54760 whole entry): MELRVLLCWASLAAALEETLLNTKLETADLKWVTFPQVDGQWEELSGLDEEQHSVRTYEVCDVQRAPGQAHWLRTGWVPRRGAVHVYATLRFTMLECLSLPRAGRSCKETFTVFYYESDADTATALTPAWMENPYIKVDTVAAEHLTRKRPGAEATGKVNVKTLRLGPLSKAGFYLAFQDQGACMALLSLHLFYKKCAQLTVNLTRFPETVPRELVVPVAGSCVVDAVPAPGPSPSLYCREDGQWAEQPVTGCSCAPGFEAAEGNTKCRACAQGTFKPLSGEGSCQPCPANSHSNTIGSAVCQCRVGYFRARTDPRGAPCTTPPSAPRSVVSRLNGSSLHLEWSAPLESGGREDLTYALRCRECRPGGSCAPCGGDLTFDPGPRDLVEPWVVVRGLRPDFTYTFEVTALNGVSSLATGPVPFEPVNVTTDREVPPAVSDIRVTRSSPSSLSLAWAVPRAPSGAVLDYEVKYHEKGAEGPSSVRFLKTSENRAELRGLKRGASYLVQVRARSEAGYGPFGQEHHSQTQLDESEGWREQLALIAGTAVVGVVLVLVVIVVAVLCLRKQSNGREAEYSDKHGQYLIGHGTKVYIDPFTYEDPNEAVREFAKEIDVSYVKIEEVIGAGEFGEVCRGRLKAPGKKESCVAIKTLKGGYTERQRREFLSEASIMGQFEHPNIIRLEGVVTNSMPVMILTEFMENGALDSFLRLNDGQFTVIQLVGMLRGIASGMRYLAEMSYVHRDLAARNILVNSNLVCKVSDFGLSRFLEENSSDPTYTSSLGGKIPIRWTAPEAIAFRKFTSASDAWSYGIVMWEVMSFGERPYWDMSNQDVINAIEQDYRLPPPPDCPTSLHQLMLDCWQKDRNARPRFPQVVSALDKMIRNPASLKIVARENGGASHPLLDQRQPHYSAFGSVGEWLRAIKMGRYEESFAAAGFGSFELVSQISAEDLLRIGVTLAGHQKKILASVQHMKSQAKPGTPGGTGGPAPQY

[29] = molecular target: 5-hydroxytryptamine receptor 2A (Homo sapiens) (UniProt P28223); conditions: Compound concentration 10.0 uM
[30] = molecular target: RAF proto-oncogene serine/threonine-protein kinase (Homo sapiens) (UniProt P04049); conditions: Compound concentration 1000.0 nM
[31] = molecular target: Myosin light chain kinase (Homo sapiens) (UniProt Q32MK0); conditions: Compound concentration 1000.0 nM
[32] = molecular target: Alpha-1A adrenergic receptor (Homo sapiens) (UniProt P35348); conditions: Compound concentration 10.0 uM
[33] = molecular target: TGF-beta receptor type-2 (Homo sapiens) (UniProt P37173); conditions: Compound concentration 1000.0 nM
[34] = molecular target: Serine/threonine-protein kinase Chk2 (Homo sapiens) (UniProt O96017); conditions: Compound concentration 1000.0 nM
[35] = molecular target: NUAK family SNF1-like kinase 2 (Homo sapiens) (UniProt Q9H093); conditions: Compound concentration 1000.0 nM
[36] = molecular target: Serine/threonine-protein kinase 32A (Homo sapiens) (UniProt Q8WU08); conditions: Compound concentration 1000.0 nM
[37] = test system: Phosphatidylinositol 4,5-bisphosphate 3-kinase catalytic subunit alpha isoform (Homo sapiens), P42336 [H1047Y]; conditions: Compound concentration 1000.0 nM
[38] = molecular target: Calcium/calmodulin-dependent protein kinase type 1G (Homo sapiens) (UniProt Q96NX5); conditions: Compound concentration 1000.0 nM
[39] = molecular target: Receptor tyrosine-protein kinase erbB-3 (Homo sapiens) (UniProt P21860); conditions: Compound concentration 1000.0 nM
Sequence of Receptor tyrosine-protein kinase erbB-3 (Homo sapiens) (P21860 whole entry): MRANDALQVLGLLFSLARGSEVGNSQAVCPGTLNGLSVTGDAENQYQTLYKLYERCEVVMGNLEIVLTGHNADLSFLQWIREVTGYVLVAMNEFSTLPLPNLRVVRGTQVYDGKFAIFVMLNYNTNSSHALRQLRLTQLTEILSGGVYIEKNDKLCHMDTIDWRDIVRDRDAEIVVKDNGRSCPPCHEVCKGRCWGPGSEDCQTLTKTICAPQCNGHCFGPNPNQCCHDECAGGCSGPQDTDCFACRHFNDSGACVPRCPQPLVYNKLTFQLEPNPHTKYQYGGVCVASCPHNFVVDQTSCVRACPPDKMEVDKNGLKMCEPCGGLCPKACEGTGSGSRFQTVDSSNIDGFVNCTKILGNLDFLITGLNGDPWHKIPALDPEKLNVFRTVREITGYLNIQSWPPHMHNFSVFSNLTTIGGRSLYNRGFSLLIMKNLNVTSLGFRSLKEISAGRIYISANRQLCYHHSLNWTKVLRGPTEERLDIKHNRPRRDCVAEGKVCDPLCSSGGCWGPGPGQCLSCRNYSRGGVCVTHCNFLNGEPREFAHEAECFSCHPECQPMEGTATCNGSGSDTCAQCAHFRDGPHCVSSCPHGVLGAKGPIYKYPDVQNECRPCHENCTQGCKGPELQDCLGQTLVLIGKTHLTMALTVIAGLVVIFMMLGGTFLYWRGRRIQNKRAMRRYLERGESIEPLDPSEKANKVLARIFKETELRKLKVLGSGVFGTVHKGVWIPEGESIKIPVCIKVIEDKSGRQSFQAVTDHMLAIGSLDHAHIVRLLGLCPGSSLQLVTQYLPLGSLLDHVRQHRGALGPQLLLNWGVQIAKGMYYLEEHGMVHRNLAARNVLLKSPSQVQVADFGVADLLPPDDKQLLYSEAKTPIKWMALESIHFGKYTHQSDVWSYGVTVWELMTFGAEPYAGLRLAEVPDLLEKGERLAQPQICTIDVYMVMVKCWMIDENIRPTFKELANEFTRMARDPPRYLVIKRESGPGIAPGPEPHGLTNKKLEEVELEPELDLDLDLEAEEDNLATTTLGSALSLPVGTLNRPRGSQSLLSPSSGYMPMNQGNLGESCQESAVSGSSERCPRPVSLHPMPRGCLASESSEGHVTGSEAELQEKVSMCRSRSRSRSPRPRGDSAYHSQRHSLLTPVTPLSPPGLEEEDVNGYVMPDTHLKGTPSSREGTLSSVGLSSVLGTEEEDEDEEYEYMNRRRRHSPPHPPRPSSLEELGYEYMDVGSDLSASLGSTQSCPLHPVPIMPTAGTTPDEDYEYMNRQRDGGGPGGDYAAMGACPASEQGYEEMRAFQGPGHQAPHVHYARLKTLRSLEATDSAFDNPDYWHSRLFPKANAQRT

[40] = molecular target: Macrophage-stimulating protein receptor (Homo sapiens) (UniProt Q04912); conditions: Compound concentration 1000.0 nM
[41] = molecular target: STE20/SPS1-related proline-alanine-rich protein kinase (Homo sapiens) (UniProt Q9UEW8); conditions: Compound concentration 1000.0 nM
[42] = molecular target: Alpha-2C adrenergic receptor (Homo sapiens) (UniProt P18825); conditions: Compound concentration 10.0 uM
[43] = molecular target: Dual specificity mitogen-activated protein kinase kinase 3 (Homo sapiens) (UniProt P46734); conditions: Compound concentration 1000.0 nM
[44] = molecular target: Fibroblast growth factor receptor 2 (Homo sapiens) (UniProt P21802); conditions: Compound concentration 1000.0 nM

Compound: Cn1cncc1[C@@](O)(COc1ccc(C#N)cc1-c1ccc(OC(F)(F)F)cc1)c1ccc(C#N)cc1 [A-108]
- residual activity [1]: 89%
- residual activity [2]: 85%
- residual activity [3]: 69%
- inhibition [4]: 23.1%
- residual activity [5]: 100%
- residual activity [6]: 92%
- inhibition (Histamine H1 receptor): 43.5%
- residual activity [7]: 88%
- residual activity [8]: 100%
- residual activity [9]: 91%
- residual activity [10]: 100%
- residual activity [11]: 100%
- residual activity [12]: 100%
- residual activity [13]: 100%
- residual activity [14]: 100%
- residual activity [15]: 85%
- inhibition [16]: -5.85%
- residual activity [17]: 85%
- residual activity [18]: 72%
- residual activity [19]: 94%
- residual activity [20]: 90%
- residual activity [21]: 99%
- residual activity [22]: 100%
- residual activity [23]: 100%
- residual activity [24]: 61%
- residual activity [25]: 100%
- residual activity [26]: 84%
- residual activity [27]: 100%
- residual activity [28]: 100%
- inhibition [29]: -4.18%
- residual activity [30]: 85%
- residual activity [31]: 96%
- inhibition [32]: 4.51%
- residual activity [33]: 96%
- residual activity [34]: 96%
- residual activity [35]: 100%
- residual activity [36]: 75%
- residual activity [37]: 100%
- residual activity [38]: 85%
- residual activity [39]: 89%
- residual activity [40]: 100%
- residual activity [41]: 100%
- inhibition [42]: 8.51%
- residual activity [43]: 100%
- residual activity [44]: 100%

Compound: Cn1cncc1[C@](O)(COc1ccc(C#N)cc1-c1ccc(OC(F)(F)F)cc1)c1ccc(C#N)cc1 [ABT-100]
- residual activity [1]: 100%
- residual activity [2]: 100%
- residual activity [3]: 77%
- inhibition [4]: 0.0774%
- residual activity [5]: 57%
- residual activity [6]: 83%
- inhibition (Histamine H1 receptor): 88.8%
- residual activity [7]: 56%
- residual activity [8]: 100%
- residual activity [9]: 71%
- residual activity [10]: 86%
- residual activity [11]: 94%
- residual activity [12]: 91%
- residual activity [13]: 100%
- residual activity [14]: 100%
- residual activity [15]: 100%
- inhibition [16]: 32.9%
- residual activity [17]: 94%
- residual activity [18]: 89%
- residual activity [19]: 91%
- residual activity [20]: 100%
- residual activity [21]: 46%
- residual activity [22]: 100%
- residual activity [23]: 62%
- residual activity [24]: 63%
- residual activity [25]: 100%
- residual activity [26]: 79%
- residual activity [27]: 100%
- residual activity [28]: 98%
- inhibition [29]: -0.429%
- residual activity [30]: 100%
- residual activity [31]: 100%
- inhibition [32]: -7.75%
- residual activity [33]: 100%
- residual activity [34]: 100%
- residual activity [35]: 100%
- residual activity [36]: 100%
- residual activity [37]: 77%
- residual activity [38]: 96%
- residual activity [39]: 87%
- residual activity [40]: 100%
- residual activity [41]: 50%
- inhibition [42]: 5%
- residual activity [43]: 78%
- residual activity [44]: 86%
